Measured values from patent US11254686B1 (Corvus Pharmaceuticals, Inc., priority 2017, dated 2022).

Experiments:
[1] = molecular target: adenosine A2B receptor (Homo sapiens (Human), UniProt P29275); experiment: Adenosine receptor activity assay (Table 1), A2B activity; format: biochemical; settings: for IC50: read-out: Ave A2B cAMP IC50
[2] = molecular target: adenosine A2A receptor (Homo sapiens (Human), UniProt P29274); experiment: Adenosine receptor activity assay (Table 1), A2A activity; format: biochemical; settings: read-out: Ave A2A cAMP IC50
[3] = A2A activity to A2B activity (A2A/A2B)
[4] = A2A activity to the A2B activity, A2A/A2B

adenosine A2A receptor, sequence (P29274 whole entry): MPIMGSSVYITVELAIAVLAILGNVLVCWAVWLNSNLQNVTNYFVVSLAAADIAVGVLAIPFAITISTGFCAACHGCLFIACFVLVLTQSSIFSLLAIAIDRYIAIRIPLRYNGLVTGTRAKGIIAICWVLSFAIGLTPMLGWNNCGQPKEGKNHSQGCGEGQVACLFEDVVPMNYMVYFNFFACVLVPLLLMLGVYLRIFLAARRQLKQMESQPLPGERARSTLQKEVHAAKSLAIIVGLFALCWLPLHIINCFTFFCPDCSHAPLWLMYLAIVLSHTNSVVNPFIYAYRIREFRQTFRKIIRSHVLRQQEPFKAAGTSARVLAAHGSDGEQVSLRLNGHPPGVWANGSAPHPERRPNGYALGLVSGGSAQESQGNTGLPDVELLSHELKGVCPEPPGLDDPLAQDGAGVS
adenosine A2B receptor, sequence (P29275 whole entry): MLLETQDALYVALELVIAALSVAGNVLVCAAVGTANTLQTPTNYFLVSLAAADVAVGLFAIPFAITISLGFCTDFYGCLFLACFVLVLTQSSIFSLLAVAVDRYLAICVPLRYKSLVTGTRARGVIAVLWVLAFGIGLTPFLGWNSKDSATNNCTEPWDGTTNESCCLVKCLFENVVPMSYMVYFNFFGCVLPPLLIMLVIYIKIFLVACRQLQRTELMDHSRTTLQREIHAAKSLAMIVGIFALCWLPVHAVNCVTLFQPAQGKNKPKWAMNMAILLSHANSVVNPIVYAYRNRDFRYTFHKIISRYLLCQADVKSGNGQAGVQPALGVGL

Compound | Ratio [1, 3] | IC50 [1] | IC50 [2] | Ratio [1, 4]
CN(C(=O)OC(C)(C)C)C1CN(C(=O)c2nc(NCc3cncc(F)c3)nc3ccsc23)C1 [Example Z235, tert-Butyl (1-(2-(((5-fluoropyridin-3-yl)methyl)amino)thieno[3,2-d]pyrimidine-4-carbonyl)azetidin-3-yl)(methyl)carbamate] | 2.57 | 50 to 100 nM | 100 to 500 nM | 
C[C@H](Nc1nc(C(=O)N2CCN(CCCc3ccccc3)CC2)c2sccc2n1)c1cccnc1 [Example Z69, (S)-(4-(3-Phenylpropyl)piperazin-1-yl)(2-((1-(pyridin-3-yl)ethyl)amino)thieno[3,2-d]pyrimidin-4-yl)methanone] | 0.92 | > 500 nM | > 500 nM | 
O=C(c1nc(NCc2cccc(F)c2)nc2ccsc12)N1CC[C@@H](O)C1 [Example Z81, (R)-(2-((3-Fluorobenzyl)amino)thieno[3,2-d]pyrimidin-4-yl)(3-hydroxypyrrolidin-1-yl)methanone] | 2.77 | 50 to 100 nM | 100 to 500 nM | 
COc1ccc([C@H](C)Nc2nc(C(=O)N3CC(NC(C)=O)C3)c3sc(C)cc3n2)cc1 [Example Z556, (S)—N-(1-(2-((1-(4-Methoxyphenyl)ethyl)amino)-6-methylthieno[3,2-d]pyrimidine-4-carbonyl)azetidin-3-yl)acetamide] |  | 100 to 500 nM | 50 to 100 nM | 0.22
CCOc1ccc(CNc2nc(C(=O)N3CCC3)c3sccc3n2)cn1 [Example Z453, Azetidin-1-yl(2-(((6-ethoxypyridin-3-yl)methyl)amino)thieno[3,2-d]pyrimidin-4-yl)methanone] |  | 100 to 500 nM | 100 to 500 nM | 0.43
C[C@H](Nc1nc(C(=O)NC2COC2)c2sccc2n1)c1ccccn1 [Example Z194, (S)—N-(Oxetan-3-yl)-2-((1-(pyridin-2-yl)ethyl)amino)thieno[3,2-d]pyrimidine-4-carboxamide] | 5.79 | 10 to 50 nM | 100 to 500 nM | 
Cc1cc2nc(N[C@@H](C)c3cncc(F)c3)nc(C(=O)NCCN3CCOCC3)c2s1 [Example Z372, (S)-2-((1-(5-Fluoropyridin-3-yl)ethyl)amino)-6-methyl-N-(2-morpholinoethyl)thieno[3,2-d]pyrimidine-4-carboxamide] | 33.10 | 50 to 100 nM | > 500 nM | 
COc1ccc(CCNC(=O)c2nc(N[C@@H](C)c3cncc(F)c3)nc3ccsc23)cc1 [Example Z420, (S)-2-((1-(5-Fluoropyridin-3-yl)ethyl)amino)-N-(4-methoxyphenethyl)thieno[3,2-d]pyrimidine-4-carboxamide] |  | 50 to 100 nM | 100 to 500 nM | 5.38
COC[C@@H]1CCN(C(=O)c2nc(N[C@@H](C)c3ccccn3)nc3ccsc23)C1 [Example Z471, ((R)-3-(Methoxymethyl)pyrrolidin-1-yl)(2-(((S)-1-(pyridin-2-yl)ethyl)amino)thieno[3,2-d]pyrimidin-4-yl)methanone] |  | 50 to 100 nM | 100 to 500 nM | 7.81
COc1ccc(CNC(=O)c2nc(NC(C)c3ccccn3)nc3ccsc23)cn1 (centres unmarked) [Example Z49, N-((6-Methoxypyridin-3-yl)methyl)-2-((1-(pyridin-2-yl)ethyl)amino)thieno[3,2-d]pyrimidine-4-carboxamide] | 0.62 | 100 to 500 nM | 100 to 500 nM | 
C[C@H](Nc1nc(C(=O)N2CCNC2)c2sccc2n1)c1cccnc1 [Example Z148, (S)-Imidazolidin-1-yl(2-((1-(pyridin-3-yl)ethyl)amino)thieno[3,2-d]pyrimidin-4-yl)methanone] | 4.87 | > 500 nM | > 500 nM | 
O=C(c1nc(NCc2cccc(Cl)c2)nc2ccsc12)N1CC[C@@H](O)C1 [Example Z118, (R)-(2-((3-Chlorobenzyl)amino)thieno[3,2-d]pyrimidin-4-yl)(3-hydroxypyrrolidin-1-yl)methanone] | 13.75 | 50 to 100 nM | > 500 nM | 
C[C@H](Nc1nc(C(=O)N2CCC[C@H]2CO)c2sccc2n1)c1cccnc1 [Example Z47, ((S)-2-(Hydroxymethyl)pyrrolidin-1-yl)(2-(((S)-1-(pyridin-3-yl)ethyl)amino)thieno[3,2-d]pyrimidin-4-yl)methanone] | 1.00 | > 500 nM | > 500 nM | 
Cc1cc2nc(N[C@@H](C)c3cccnc3)nc(C(=O)N[C@H]3C[C@@H](O)C3)c2s1 [Example Z503, N-((1s,3R)-3-hydroxycyclobutyl)-6-methyl-2-(((S)-1-(pyridin-3-yl)ethyl)amino)thieno[3,2-d]pyrimidine-4-carboxamide] |  | 10 to 50 nM | > 500 nM | 18.01
COc1ccc(NC(=O)c2nc(N[C@@H](C)c3ccccn3)nc3ccsc23)cn1 [Example Z65, (S)—N-(6-Methoxypyridin-3-yl)-2-((1-(pyridin-2-yl)ethyl)amino)thieno[3,2-d]pyrimidine-4-carboxamide] | 14.95 | 50 to 100 nM | > 500 nM | 
C[C@H](Nc1nc(C(=O)NCCC2CCN(C(=O)OC(C)(C)C)CC2)c2sccc2n1)c1cncc(F)c1 [Example Z343, tert-Butyl (S)-4-(2-(2-((1-(5-Fluoropyridin-3-yl)ethyl)amino)thieno[3,2-d]pyrimidine-4-carboxamido)ethyl)piperidine-1-carboxylate] |  | 50 to 100 nM | 100 to 500 nM | 
O=C(c1nc(NCc2cnccn2)nc2ccsc12)N1CC[C@H](O)C1 [Example Z156, (S)-(3-Hydroxypyrrolidin-1-yl)(2-((pyrazin-2-ylmethyl)amino)thieno[3,2-d]pyrimidin-4-yl)methanone] | 14.60 | > 500 nM | > 500 nM | 
C[C@H](Nc1nc(C(=O)N2CC(C(=O)OC(C)(C)C)C2)c2sccc2n1)c1cncc(F)c1 [Example Z572, tert-Butyl (S)-1-(2-((1-(5-fluoropyridin-3-yl)ethyl)amino)thieno[3,2-d]pyrimidine-4-carbonyl)azetidine-3-carboxylate] |  | 10 to 50 nM | 100 to 500 nM | 2.90
C[C@H](Nc1nc(C(=O)N2CC(CN(C)C(=O)CC(C)(C)C)C2)c2sccc2n1)c1cncc(F)c1 [Example Z550, (S)—N-((1-(2-((1-(5-Fluoropyridin-3-yl)ethyl)amino)thieno[3,2-d]pyrimidine-4-carbonyl)azetidin-3-yl)methyl)-N,3,3-trimethylbutanamide] |  | 10 to 50 nM | 50 to 100 nM | 4.79
C[C@H](Nc1nc(C(=O)NCCC2CN(C(=O)OC(C)(C)C)C2)c2sccc2n1)c1ccccn1 [Example Z426, tert-Butyl (S)-3-(2-(2-((1-(pyridin-2-yl)ethyl)amino)thieno[3,2-d]pyrimidine-4-carboxamido)ethyl)azetidine-1-carboxylate] |  | 50 to 100 nM | 100 to 500 nM | 3.47
COCC(Nc1nc(C(=O)N[C@H]2C[C@@H](O)C2)c2sccc2n1)c1cccnc1 (some centres unmarked) [Example Z218, N-((1s,3s)-3-Hydroxycyclobutyl)-2-((2-methoxy-1-(pyridin-3-yl)ethyl)amino)thieno[3,2-d]pyrimidine-4-carboxamide] | 8.99 | 10 to 50 nM | 100 to 500 nM | 
COc1cncc(CNc2nc(C(=O)N3CCC3)c3sccc3n2)c1 [Example Z116, Azetidin-1-yl(2-(((5-methoxypyridin-3-yl)methyl)amino)thieno[3,2-d]pyrimidin-4-yl)methanone] | 4.17 | 100 to 500 nM | > 500 nM | 
C[C@H](Nc1nc(C(=O)N2CC[C@@H](S(C)(=O)=O)C2)c2sccc2n1)c1cccnc1 [Example Z262, ((R)-3-(Methylsulfonyl)pyrrolidin-1-yl)(2-(((S)-1-(pyridin-3-yl)ethyl)amino)thieno[3,2-d]pyrimidin-4-yl)methanone] | 1.12 | > 500 nM | > 500 nM | 
O=C(NCc1cncnc1)c1nc(NCc2cncnc2)nc2ccsc12 [Example Z4, N-(Pyrimidin-5-ylmethyl)-2-((pyrimidin-5-ylmethyl)amino)thieno[3,2-d]pyrimidine-4-carboxamide] | 0.95 | > 500 nM | > 500 nM | 
COc1ccc(CNC(=O)c2nc(NCc3cccnc3C)nc3ccsc23)cn1 [Example Z94, N-((6-Methoxypyridin-3-yl)methyl)-2-(((2-methylpyridin-3-yl)methyl)amino)thieno[3,2-d]pyrimidine-4-carboxamide] | 1.00 | 100 to 500 nM | 100 to 500 nM | 
C[C@H](Nc1nc(C(=O)NCCC2CCNC2)c2sccc2n1)c1ccccn1 (stereo partly drawn) [Example Z431, 2-(((S)-1-(Pyridin-2-yl)ethyl)amino)-N-(2-(pyrrolidin-3-yl)ethyl)thieno[3,2-d]pyrimidine-4-carboxamide] |  | 100 to 500 nM | > 500 nM | 37.04
C[C@H](Nc1nc(C(=O)NCCc2ccc(C(=O)O)cc2)c2sccc2n1)c1cncc(F)c1 [Example Z452, (S)-4-(2-(2-((1-(5-Fluoropyridin-3-yl)ethyl)amino)thieno[3,2-d]pyrimidine-4-carboxamido)ethyl)benzoic acid] |  | 100 to 500 nM | > 500 nM | 19.85
COCC(Nc1nc(C(=O)N2CC(OC)C2)c2sccc2n1)c1cccnc1 (centres unmarked) [Example Z217, (2-((2-Methoxy-1-(pyridin-3-yl)ethyl)amino)thieno[3,2-d]pyrimidin-4-yl)(3-methoxyazetidin-1-yl)methanone] | 5.70 | 10 to 50 nM | 50 to 100 nM | 
O=C(c1nc(NCc2cncc(C(F)(F)F)c2)nc2ccsc12)N1CC[C@H](O)C1 [Example Z264, (S)-(3-Hydroxypyrrolidin-1-yl)(2-(((5-(trifluoromethyl)pyridin-3-yl)methyl)amino)thieno[3,2-d]pyrimidin-4-yl)methanone] | 13.34 | > 500 nM | > 500 nM | 
